Structures can show the parent of a compound that is named as a salt. Where two headings read alike, the source gives them in different places.
Tests used:
SFV [1] = assay: microbe, parasite or virus in culture; format: cell-based, Semliki Forest virus; details: Semliki Forest virus; for IC50: HeLa Kyoto, read-out: IC50 SFV (7 h); for inhibition at 10 µM: M-HeLa, 7 h, read-out: % inhibition (SFV screen)
DENV-2 = DENV-2 infection assay / secondary screen (E protein staining); format: cell-based, dengue virus serotype 2; details: Dengue virus, DENV2, Huh-7, 24 h; for inhibition at 10 µM: read-out: % inhibition (DENV-2 screen)
SINV = assay: microbe, parasite or virus in culture; format: cell-based, Sindbis virus; details: Sindbis virus, HeLa Kyoto, read-out: IC50 SINV
DENV-1 = assay: microbe, parasite or virus in culture; format: cell-based, dengue virus; details: Dengue virus, DENV1, Huh-7, read-out: IC50 DENV-1
DENV-3 = assay: microbe, parasite or virus in culture; format: cell-based, dengue virus; details: Dengue virus, DENV3, Huh-7, read-out: IC50 DENV-3
ZIKV [2] = assay: microbe, parasite or virus in culture; format: cell-based, Zika virus; details: Zika virus, Huh-7, read-out: IC50 ZIKV
YF17D = assay: organism not typed; format: cell-based, yellow fever 17D; details: Huh-7, read-out: IC50 YF17D
HCV = assay: microbe, parasite or virus in culture; format: cell-based, hepatitis C virus; details: Hepatitis C virus, Huh7.5, read-out: IC50 HCV
VSV VLP = assay: microbe, parasite or virus in culture; format: cell-based, vesicular stomatitis virus; details: Vesicular stomatitis virus, HeLa Kyoto, 24 h, read-out: IC50 VSV
RABV VLP = assay: microbe, parasite or virus in culture; format: cell-based, rabies virus; details: Lyssavirus rabies, HeLa Kyoto, 24 h, read-out: IC50 RABV
H5N1 VLP = assay: microbe, parasite or virus in culture; format: cell-based, influenza H5N1; details: Influenza A virus, H5N1, HeLa Kyoto, 48 h, read-out: IC50 H5N1
EBOV VLP = assay: microbe, parasite or virus in culture; format: cell-based, Ebola virus; details: Zaire ebolavirus, HeLa Kyoto, 48 h, read-out: IC50 EBOV
HIV-1 = assay: microbe, parasite or virus in culture; format: cell-based, human immunodeficiency virus type 1
HSV-1 = assay: microbe, parasite or virus in culture; format: cell-based, herpes simplex virus 1; details: 8 h
VACV = assay: microbe, parasite or virus in culture; format: cell-based, vaccinia virus
VSV_Blam_VLP fusion = assay: microbe, parasite or virus in culture; format: cell-based; details: Vesicular stomatitis virus, HeLa Kyoto, read-out: Inhibition of VSV_Blam_VLP fusion compared to DMSO controls
SFV [3] = format: cell-based, Semliki Forest virus
HeLa Kyoto cells = details: human, 7 h
Huh7 cells = details: human
SFV E1 trimer formation = details: HeLa Kyoto, MOI 100; Chloroquine 100 μM
ZIKV [4] = details: AG129 mice; for Infectious virus in the blood at day 7 p.i.: immunofocus assay
in vitro [5] = details: human
in vitro [6] = details: human; remark: listed apart in the source
[7] = mouse, in vivo; cited from earlier work
SFV internalisation = format: cell-based, Semliki Forest virus
[8] = test system: DID-labelled SFV hemifusion/fusion; format: cell-based, Semliki Forest virus; details: HeLa Kyoto, 10 μM (20 μM Raloxifene; Bafilomycin 100 nM), 40 min at 37 °C
[9] = test system: Renilla luciferase expression (protein synthesis); format: cell-based
viruses/VLPs tested = format: cell-based
[10] = 10 mg/kg
in vivo = details: CD1, mouse, 1 mg/kg
[11] = read-out: IC50 DENV-2 (7 + 17 h)

## CC[C@@]1([C@@H]2O[C@@H]([C@H]3O[C@@](O)(CO)[C@H](C)C[C@@H]3C)C[C@@H]2C)CC[C@H]([C@]2(C)CC[C@]3(C[C@H](O)[C@@H](C)[C@@H]([C@@H](C)[C@@H](OC)[C@H](C)C(=O)O)O3)O2)O1 [Monensin, Monensin sodium salt]
SFV [1]
  IC50: 1.1 µM
  inhibition at 10 µM: 81.4%
DENV-2
  inhibition at 10 µM: 100%
DENV-2; [11]
  IC50: 4.5 µM
DENV-2; read-out: IC50 DENV-2 (24 h)
  IC50: 3.8 µM
SINV
  IC50: 0.4 µM
DENV-1
  IC50: 6.2 µM
DENV-3
  IC50: ~3.6 µM
ZIKV [2]
  IC50: 5.5 µM
YF17D
  IC50: < 0.3 µM
HCV
  IC50: 2.5 µM
VSV VLP
  IC50: 0.7 µM
RABV VLP
  IC50: 0.8 µM
H5N1 VLP
  IC50: 0.9 µM
EBOV VLP
  IC50: 4.5 µM
HIV-1; virus, HeLa TZM-bl, 24 h
  IC50 HIV: No inhibition
HSV-1; virus, Vero cells
  IC50 HSV (Vero): No inhibition
VACV
  IC50 VACV: No inhibition
VSV_Blam_VLP fusion
  inhibition at 10 µM: > 50%
SFV [3]
  Activity when added before SFV or 30 and 60 min after internalisation: progressive and more dramatic decrease in activity
HeLa Kyoto cells
  TC50 SFV (7 h): >50 µM
  TC50 SFV (7h): >50000 µM
Huh7 cells
  TC50 DENV-2 (7 + 17 h): >50 µM
Huh7 cells; 24 h
  TC50 DENV-2 (24 h): >50 µM
SFV E1 trimer formation
  SFV E1 trimer formation: prevented trimer formation
ZIKV [4]
  Infectious virus in the blood at day 7 p.i.: cleared infectious virus from the blood by day 7
ZIKV [4]; qRT-PCR and immunofocus assay, vs untreated
  ZIKV blood titres at day 1 p.i.: significantly reduced blood titres
In vitro [5]; % viability (SFV screen)
  viability at 10 µM: 108%
In vitro [6]
  viability at 10 µM: 81%
[7]
  Well tolerated dose: up to 70 mg/kg

## CC(C)(C)c1cc(C=C(C#N)C#N)cc(C(C)(C)C)c1O [Tyrphostin A9]
SFV [1]
  IC50: 2.9 µM
  inhibition at 10 µM: 73.5%
DENV-2
  inhibition at 10 µM: 99.7%
DENV-2; [11]
  IC50: 1.2 µM
DENV-2; read-out: IC50 DENV-2 (24 h)
  IC50: 0.4 µM
SINV
  IC50: ~0.8 µM
DENV-1
  IC50: 1.4 µM
DENV-3
  IC50: 1.2 µM
ZIKV [2]
  IC50: < 0.3 µM
YF17D
  IC50: < 0.3 µM
HCV
  IC50: < 0.3 µM
VSV VLP
  IC50: 4.1 µM
RABV VLP
  IC50: 1.4 µM
H5N1 VLP
  IC50: < 0.5 µM
EBOV VLP
  IC50: 3.2 µM
HIV-1; Human immunodeficiency virus 1, 24 h, read-out: IC50 HIV
  IC50: 1.1 µM
HSV-1; Human alphaherpesvirus 1, Vero, read-out: IC50 HSV (Vero)
  IC50: 1.5 µM
VACV; Orthopoxvirus vaccinia, HeLa Kyoto, 8 h, read-out: IC50 VACV
  IC50: 3.4 µM
VSV_Blam_VLP fusion
  inhibition at 10 µM: > 50%
SFV internalisation
  Internalised SFV E1/E2 after subtilisin treatment: Loss of E1/E2
[8]
  Inhibition of DID-SFV de-quenching (in words): Strong inhibition of de-quenching
[9]
  Decrease of Renilla signal (protein synthesis): more than 50%
SFV [3]
  Activity when added before SFV or 30 and 60 min after internalisation: minor but reproducible decrease in activity
  Time of Addition: Before and after fusion
viruses/VLPs tested
  Viruses Inhibited: All tested
Huh7 cells
  TC50 DENV-2 (7 + 17 h): >50 µM
  TC50 DENV-2 (24 h): 28.5 µM
SFV E1 trimer formation
  SFV E1 trimer formation: No trimers were observed
Tyrphostin A9 1 mg/kg IP
  Blood peak: 5 µM
Tyrphostin A9 1 mg/kg PO, CD1 mice
  Peak blood concentration: 1.52 µM
ZIKV [4]; Tyrphostin A9 1 mg/kg PO, vs untreated
  ZIKV blood titres at days 1 and 3: only minor and non significant differences
ZIKV [4]
  Infectious virus in the blood at day 7 p.i.: infectious virus was detected in only two of six mice
ZIKV [4]; without statistical significance
  ZIKV-infected CD14+CD11c+ dendritic cells in blood, day 7 p.i.: fewer infected CD14+CD11c+ dendritic cells
ZIKV [4]; Tyrphostin A9 1 mg/kg PO, after the fourth administration
  Reason for suspending administration: toxicity and weight loss
[10]
  Toxicity: toxicity
In vivo
  concentration at 2 h: 20 nM
  concentration at 8 h: 760 nM
In vivo; po
  Tmax: 1 h
In vitro [5]
  viability at 10 µM: 105%
In vitro [6]
  viability at 24 h, 10 µM: 50.5%
